From patent US20090318351A1, “METHOD OF TREATING ACUTE ST-ELEVATION MYOCARDIAL INFARCTION WITH A DELTA PKC ANTAGONIST” (priority 2008, published 2009)
“Also recorded” adds a separate entry of the source. Ends that are not written are not given here.

Key:
[1] = Effect of D-peptides on plasma stability of KAI-9706
Description: KAI-9706 was engineered with D-amino acids to determine their impact on peptide composition stability. Unmodified KAI-9706 was compared to a peptide composition with the same amino acid sequence, however the amino acids used were d-enantiomers instead of 1-amino acids. A retro-inverso version and a scrambled version of the peptide composition were also prepared.

[2] = Plasma stability of capped peptides (KAI-9706 modified at amino and carboxy termini); conditions: rat
Description: Plasma stability of capped peptides was compared. KAI-9706 was modified step-wise at its amino and carboxy termini. Plasma stability as measured by the percent of peptide composition remaining after 15 minutes.

[3] = test system: patients with acute anterior STEMI; test: DELTA MI trial: intracoronary KAI-9803 during primary PCI for acute anterior STEMI
Description: Safety and biomarker end points were assessed.
The following example is a clinical treatment of acute ST-elevation myocardial infarction (STEMI) using the compositions and methods provided in the invention.
Patients were recommended to receive aspirin (162-325 mg orally), a thienopyridine loading dose (clopidogrel 300-600 mg or ticlopidine 500 mg), unfractionated heparin, and glycoprotein IIb-IIIa inhibitors during PCI. […] After verifying the final angiographic inclusion criteria during diagnostic angiography, randomization and study drug preparation occurred in the catheterization laboratory before the beginning of the PCI procedure.
Study drug was reconstituted into a clear solution at 1 of 4 concentrations using serial dilutions with 0.9% sodium chloride solution. Study drug was administered during PCI in the following sequence. First, the guidewire was passed across the obstruction in the left anterior descending (LAD) infarct vessel and an over-the-wire balloon catheter was positioned at the level of the obstruction. Second, the guidewire was removed, and dilute contrast was injected to confirm positioning of the catheter tip downstream from the obstruction and to assess patency of the distal vessel. The contrast injection was followed by a saline flush, and the guidewire was reinserted. Third, the balloon was inflated, and, after removing the guidewire, 2 mL of blinded study drug were hand injected slowly into the distal vascular bed over at least 1 minute. Fourth, the guidewire was readvanced through the catheter into the distal vessel, and the balloon was deflated. Finally, after antegrade epicardial coronary flow was re-established following initial balloon inflations, 3 mL of blinded study drug were injected through the guide catheter positioned at the ostium of the left main coronary artery. The PCI procedure was then completed according to standard technique.
After initial informed consent was obtained and before diagnostic angiography was performed, a continuous digital 12-lead ECG monitor (NEMON 180+, Northeast Monitoring, Natick, Mass.) was applied and baseline serum samples were obtained for analyses of cardiac markers including creatine kinase (CK and CK-MB), troponin T, and N-terminal pro-brain natriuretic peptide (BNP).
After completion of the PCI procedure, angiography was performed a minimum of 10 minutes after the final balloon inflation and a minimum of 30 minutes after antegrade epicardial flow was re-established to measure TIMI (Thrombolysis in Myocardial Infarction) flow grade, corrected TIMI frame count, and TIMI myocardial perfusion grade (TMPG). TMPG was assessed approximately 30 minutes after administration of study drug and prior to intracoronary administration of adenosine. Coronary flow reserve was determined by measuring corrected TIMI frame count before and after administration of 18-24 mcg of intracoronary adenosine. A left ventriculogram was performed to assess ejection fraction.
The continuous ECG monitor was removed after 24 hours of data collection. Continuous ST-segment recovery analysis was performed in a blinded core laboratory. End points assessed from measurement of continuous 12-lead ECGs included time to stable ST recovery, % ST-segment resolution at serial static time points, and ST recovery time-trend curve area defined by summated ST-segment resolution and re-elevation integrated over the first 3 hours following PCI.
Blood collection for CK-MB levels was performed at 3-6 hours, 6-12 hours, 18-24 hours, and 36 hours after randomization.

[4] = 100 μg/ml, room temperature, LC/MS
Description: The effect of N-terminal acetylation and C-terminal amidation on compound stability in plasma and serum from rat and human was studied. The compounds were tested in the plasma/serum at a concentration of 100 μg/ml. The solutions were incubated at room temperature, precipitated with 5% TCA, and then the supernatant was neutralized with ammonium acetate. The peptides were then analyzed by LC/MS.

[5] = Stability of linear versus disulfide linked peptides in PBS solution; assay type: physicochemical; conditions: conditions described in Example 15 (so in the source), FIGS. 8, 9 and 15
Description: The peptides were placed in solution at 0.1 mg/ml in PBS (pH 7.4) at 37° C.
Linear and disulfide bond linked versions of PKC-βI and PKC-βII peptide compositions were incubated under the conditions described in Example 15.
In particular, the Asn residues at position 7 of the β-I and β-II peptides and the Gln at position 2 of the β-II peptide. These linear peptide compositions were modified by substituting the Gly immediately C-terminal to the Asn with either Leu in the β-I peptide composition or Gly to Ile in the β-II peptide composition. The Gln at position 2 of the β-II peptide composition was also substituted with a Glu residue. The stability of the peptides was studied under the conditions described in Example 15.

[6] = test system: rat heart; test: Rat heart model (Langendorff assay) of ischemic damage, CK release; conditions: Langendorff in vitro post-ischemia model, 10 minutes perfusion, FIG. 16
Description: The ability of the capped composition to inhibit ischemic damage in a rat heat model (Langendorff Assay) was evaluated versus the uncapped form.

## CC[C@@H](C)[C@@H](NC(=O)[C@H]1CCCN1C(=O)[C@@H](C)NC(=O)[C@@H](CC(=O)O)NC(=O)[C@@H](Cc1c[nH]cn1)NC(=O)[C@H](N)CSSC[C@@H](N)C(=O)N[C@H](Cc1ccc(O)cc1)C(=O)NCC(=O)N[C@H](CCCNC(=N)N)C(=O)N[C@H](CCCCN)C(=O)N[C@H](CCCCN)C(=O)N[C@H](CCCNC(=N)N)C(=O)N[C@H](CCCNC(=N)N)C(=O)N[C@H](CCC(N)=O)C(=O)N[C@H](CCCNC(=N)N)C(=O)N[C@H](CCCNC(=N)N)C(=O)N[C@H](CCCNC(=N)N)C(=O)O)C(=O)NCC(=O)N[C@H](Cc1ccc(O)cc1)C(=O)N[C@H](CC(=O)O)C(=O)O [KAI-9706 carrier All-D cargo All-D]
[1]
  remaining at 0.25 h: 100%

## CC[C@H](C)[C@H](NC(=O)[C@@H]1CCCN1C(=O)[C@H](C)NC(=O)[C@H](CC(=O)O)NC(=O)[C@H](Cc1c[nH]cn1)NC(=O)[C@@H](N)CSSC[C@@H](N)C(=O)N[C@H](Cc1ccc(O)cc1)C(=O)NCC(=O)N[C@H](CCCNC(=N)N)C(=O)N[C@H](CCCCN)C(=O)N[C@H](CCCCN)C(=O)N[C@H](CCCNC(=N)N)C(=O)N[C@H](CCCNC(=N)N)C(=O)N[C@H](CCC(N)=O)C(=O)N[C@H](CCCNC(=N)N)C(=O)N[C@H](CCCNC(=N)N)C(=O)N[C@H](CCCNC(=N)N)C(=O)O)C(=O)NCC(=O)N[C@@H](Cc1ccc(O)cc1)C(=O)N[C@@H](CC(=O)O)C(=O)O [KAI-9706 carrier All-D cargo All-L]
[1]
  remaining at 0.25 h: 88%

## CC[C@@H](C)[C@@H](NC(=O)[C@H]1CCCN1C(=O)[C@@H](C)NC(=O)[C@@H](CC(=O)O)NC(=O)[C@@H](Cc1c[nH]cn1)NC(=O)[C@H](N)CSSC[C@H](N)C(=O)N[C@@H](Cc1ccc(O)cc1)C(=O)NCC(=O)N[C@@H](CCCNC(=N)N)C(=O)N[C@@H](CCCCN)C(=O)N[C@@H](CCCCN)C(=O)N[C@@H](CCCNC(=N)N)C(=O)N[C@@H](CCCNC(=N)N)C(=O)N[C@@H](CCC(N)=O)C(=O)N[C@@H](CCCNC(=N)N)C(=O)N[C@@H](CCCNC(=N)N)C(=O)N[C@@H](CCCNC(=N)N)C(=O)O)C(=O)NCC(=O)N[C@H](Cc1ccc(O)cc1)C(=O)N[C@H](CC(=O)O)C(=O)O [KAI-9706 carrier All-L cargo All-D]
[1]
  remaining at 0.25 h: 0%

## CC[C@H](C)[C@H](NC(=O)[C@@H]1CCCN1C(=O)[C@H](C)NC(=O)[C@H](CC(=O)O)NC(=O)[C@H](Cc1c[nH]cn1)NC(=O)[C@@H](N)CSSC[C@H](N)C(=O)N[C@@H](Cc1ccc(O)cc1)C(=O)NCC(=O)N[C@@H](CCCNC(=N)N)C(=O)N[C@@H](CCCCN)C(=O)N[C@@H](CCCCN)C(=O)N[C@@H](CCCNC(=N)N)C(=O)N[C@@H](CCCNC(=N)N)C(=O)N[C@@H](CCC(N)=O)C(=O)N[C@@H](CCCNC(=N)N)C(=O)N[C@@H](CCCNC(=N)N)C(=O)N[C@@H](CCCNC(=N)N)C(=O)O)C(=O)NCC(=O)N[C@@H](Cc1ccc(O)cc1)C(=O)N[C@@H](CC(=O)O)C(N)=O [KAI-9706 carrier H—OH cargo H—NH2]
[2]
  remaining at 0.25 h: 0%

## CC[C@H](C)[C@H](NC(=O)[C@@H]1CCCN1C(=O)[C@H](C)NC(=O)[C@H](CC(=O)O)NC(=O)[C@H](Cc1c[nH]cn1)NC(=O)[C@@H](N)CSSC[C@H](N)C(=O)N[C@@H](Cc1ccc(O)cc1)C(=O)NCC(=O)N[C@@H](CCCNC(=N)N)C(=O)N[C@@H](CCCCN)C(=O)N[C@@H](CCCCN)C(=O)N[C@@H](CCCNC(=N)N)C(=O)N[C@@H](CCCNC(=N)N)C(=O)N[C@@H](CCC(N)=O)C(=O)N[C@@H](CCCNC(=N)N)C(=O)N[C@@H](CCCNC(=N)N)C(=O)N[C@@H](CCCNC(=N)N)C(=O)O)C(=O)NCC(=O)N[C@@H](Cc1ccc(O)cc1)C(=O)N[C@@H](CC(=O)O)C(=O)O [KAI-9706]
[2]
  remaining at 0.25 h: 1%
[1]; All-L, All-D, scrambled or retro-inverso (R/I) carrier and cargo
  % parent remaining at 15 mins: 1%

## CC(C)C[C@H](NC(=O)[C@H](CO)NC(=O)CNC(=O)[C@H](CC(C)C)NC(=O)[C@H](CCC(=O)O)NC(=O)[C@H](Cc1ccc(O)cc1)NC(=O)[C@H](CO)NC(=O)[C@H](CC(N)=O)NC(=O)[C@H](Cc1ccccc1)NC(=O)[C@H](CO)NC(=O)[C@@H](N)CSSC[C@H](N)C(=O)N[C@@H](Cc1ccc(O)cc1)C(=O)NCC(=O)N[C@@H](CCCNC(=N)N)C(=O)N[C@@H](CCCCN)C(=O)N[C@@H](CCCCN)C(=O)N[C@@H](CCCNC(=N)N)C(=O)N[C@@H](CCCNC(=N)N)C(=O)N[C@@H](CCC(N)=O)C(=O)N[C@@H](CCCNC(=N)N)C(=O)N[C@@H](CCCNC(=N)N)C(=O)N[C@@H](CCCNC(=N)N)C(=O)O)C(=O)O [KAI-9803]
[3]; active study drug group, through 6 months, number of events
  investigator-reported CHF events: 21
[3]; all cohorts
  incidence of serious adverse events versus placebo: similar
[3]; blood counts, electrolytes, BUN, creatinine, liver function tests
  changes in clinical laboratory values from baseline through 48 hours versus placebo: no differences
[3]; cohort 1 (0.05 mg)
  incidence of serious adverse events through 30 days: 30.4%
[3]; cohort 2 (0.5 mg)
  incidence of serious adverse events through 30 days: 16.0%
[3]; cohort 3 (1.25 mg)
  incidence of serious adverse events through 30 days: 19.2%
[3]; cohort 4 (5.0 mg)
  incidence of serious adverse events through 30 days: 35.7%
[3]; pooled active study drug
  median maximum change in the QT interval from baseline until after the second dose: 16.9 ms

## Ac-EAVSLKPTGGYGRKKRRQRRR-NH2 [KP-1678]
[4]
  stability in human serum: increased stability

## Ac-GEEVIRNISGYGRKKRRQRRR-NH2 [modified linear β-II peptide composition]
[5]
  stability in solution of PKC-βI and PKC-βII peptide compositions: served to stabilize; also recorded: improved stability

## Ac-GKLFIMNLSGYGRKKRRQRRR-NH2 [modified linear β-I peptide composition]
[5]
  stability in solution of PKC-βI and PKC-βII peptide compositions: served to stabilize; also recorded: stabilized

## EAVSLKPTGGYGRKKRRQRRR-NH2 [KP-1633]
[4]
  stability in human serum: increased stability

## KAI-1355: truncated version of KAI-9803 in which the carboxy terminal leucine was removed; cargo CSFNSYELGS
[6]
  potency in protecting cardiac tissue from ischemia (creatine kinase release): potency comparable to that of the full length KAI-9803
